Source: US10538535B2, “Antitumoral compounds” (priority 2017, dated 2020)

Assays:
Experiment in all cases: cells
[1] = test system: HT29 cells; details: Homo sapiens, HT-29, 72 h; for IC (TGI): read-out: TGI; for CC50: read-out: LC50
Excerpt: (§1) The aim of this assay is to evaluate the in vitro cytostatic (ability to delay or arrest tumor cell growth) or cytotoxic (ability to kill tumor cells) activity of the samples being tested.
(§2) A colorimetric assay, using sulforhodamine B (SRB) reaction has been adapted to provide a quantitative measurement of cell growth and viability (following the technique described by Skehan et al. J. Natl. Cancer Inst. 1990, 82, 1107-1112). Another colorimetric assay based on 3-(4,5-Dimethylthiazol-2-yl)-2,5-diphenyltetrazolium bromide (MTT) reduction to a purple formazan has been also used to assess the antiproliferative activity (following the technique described by Mosmann et al. J. Immunol. Meth. 1983, 65, 55-63).
(§3) These forms of assays employ 96-well cell culture microplates following the standards of the American National Standards Institute and the Society for Laboratory Automation and Screening (ANSI SLAS 1-2004 (R2012) Oct. 12, 2011. All the cell lines used in this study were obtained from the American Type Culture Collection (ATCC) and derive from different types of human cancer.
(§4) A549, HT29, MDA-MB-231 and PSN1 cells were maintained in Dulbecco's Modified Eagle Medium (DMEM) while PC-3 and 22Rv1 cells were maintained in Roswell Park Memorial Institute Medium (RPMI). All cell lines were supplemented with 10% Fetal Bovine Serum (FBS), 2 mM L-glutamine, 100 U/mL penicillin, and 100 […] at 37° C., 5% CO2 and 98% humidity. For the experiments, cells were harvested from subconfluent cultures using trypsinization and resuspended in fresh medium before counting and plating.
(§5) A549, HT29, MDA-MB-231 and PSN1 cells were seeded in 96 well microtiter plates, at 5000 cells per well in aliquots of 150 μL, and allowed to attach to the plate surface for 18 hours (overnight) in drug free medium. After that, one control (untreated) plate of each cell line was fixed (as described below) and used for time zero reference value. Culture plates were then treated with test compounds (50 μL aliquots of 4× stock solutions in complete culture medium plus 4% DMSO) using ten 2/5 serial dilutions (concentrations ranging from 10 to 0.003 μg/mL) and triplicate cultures (1% final concentration in DMSO). After 72 hours treatment, the antitumor effect was measured by using the SRB methodology: Briefly, cells were washed twice with PBS, fixed for 15 min in 1% glutaraldehyde solution at room temperature, rinsed twice in PBS, and stained in 0.4% SRB solution for 30 min at room temperature. Cells were then rinsed several times with 1% acetic acid solution and air-dried at room temperature.
(§6) Effects on cell growth and survival were estimated by applying the NCI algorithm (Boyd M R and Paull K D. Drug Dev. Res. 1995, 34, 91-104). The values obtained in triplicate cultures were fitted by nonlinear regression to a four-parameters logistic curve by nonlinear regression analysis.

[2] = test system: MDA-MB-231 cells; details: Homo sapiens, MDA-MB-231, 72 h; for CC50: read-out: LC50; for IC (TGI): read-out: TGI
Excerpt: as §1, §2, §3, §4, §5, §6

[3] = test system: PSN1 cells; details: Homo sapiens, PSN1, 72 h; for GI50: PSN1, 72 hours treatment, SRB; for IC (TGI): read-out: TGI; for CC50: read-out: LC50
Excerpt: as §1, §2, §3, §4, §5, §6

[4] = test system: A549 cells; details: Homo sapiens, A549, 72 h; for IC (TGI): read-out: TGI; for CC50: read-out: LC50
Excerpt: as §1, §2, §3, §4, §5, §6

Compound	IC (TGI) [1] [nM]	CC50 [2] [nM]	IC (TGI) [2] [nM]	GI50 [3] [nM]	IC (TGI) [3] [nM]	GI50 [4] [nM]	IC (TGI) [4] [nM]	GI50 [1] [nM]	CC50 [1] [nM]	CC50 [3] [nM]	CC50 [4] [nM]	GI50 [2] [nM]
COc1ccc2[nH]c3c(c2c1)C[C@@H](CO)N[C@]31CS[C@@H]2c3c(OC(C)=O)c(C)c4c(c3[C@H](COC1=O)N1[C@@H]2[C@H]2c3c(cc(C)c(OC)c3O)C[C@@H]([C@@H]1C#N)N2C)OCO4 [Compound 18-S]	1.34	1.58	1.34	0.959	1.34	1.7	3.03					
C=CCOC(=O)NC[C@H]1Cc2c([nH]c3ccc(OC)cc23)[C@@]2(CS[C@@H]3c4c(OC(C)=O)c(C)c5c(c4[C@H](COC2=O)N2[C@@H]3[C@H]3c4c(cc(C)c(OC)c4O)C[C@@H]([C@@H]2C#N)N3C)OCO5)N1 [Compound 25-R]	2.76	8.38	2.54		2.32	1.32	2.43	1.54	> 110	6.73	9.92	
C=CCOC(=O)NC[C@@H]1Cc2c([nH]c3ccc(OC)cc23)[C@@]2(CS[C@@H]3c4c(OC(C)=O)c(C)c5c(c4[C@H](COC2=O)N2[C@@H]3[C@H]3c4c(cc(C)c(OC)c4O)C[C@@H]([C@@H]2C#N)N3C)OCO5)N1 [Compound 25-S]	7.72	15.4	9.04	6.84	9.26	7.17	7.61	7.17	> 110	14.3	> 110	5.84
COc1ccc2[nH]c3c(c2c1)C[C@H](CN)N[C@]31CS[C@@H]2c3c(OC(C)=O)c(C)c4c(c3[C@H](COC1=O)N1[C@@H]2[C@H]2c3c(cc(C)c(OC)c3O)C[C@@H]([C@@H]1C#N)N2C)OCO4 [Compound 26-R]	1.58	1.46	1.22	0.972	1.7	1.94	3.4	0.729	> 122	3.52	> 122	1.17
COc1ccc2[nH]c3c(c2c1)C[C@@H](CN)N[C@]31CS[C@@H]2c3c(OC(C)=O)c(C)c4c(c3[C@H](COC1=O)N1[C@@H]2[C@H]2c3c(cc(C)c(OC)c3O)C[C@@H]([C@@H]1C#N)N2C)OCO4 [Compound 26-S]	3.16	3.89	1.94	3.04	3.28	11.2	21.9	2.79	> 122	3.52	> 122	1.34
COc1ccc2[nH]c3c(c2c1)C[C@H](CN)N[C@]31CS[C@@H]2c3c(OC(C)=O)c(C)c4c(c3[C@H](COC1=O)N1[C@@H]2[C@H]2c3c(cc(C)c(OC)c3O)C[C@@H]([C@@H]1O)N2C)OCO4 [Compound 27-R]	0.553	0.86	0.541	0.639	1.17	2.09	3.93	0.504	> 123	2.46	10.1	0.307
COc1ccc2[nH]c3c(c2c1)C[C@@H](CN)N[C@]31CS[C@@H]2c3c(OC(C)=O)c(C)c4c(c3[C@H](COC1=O)N1[C@@H]2[C@H]2c3c(cc(C)c(OC)c3O)C[C@@H]([C@@H]1O)N2C)OCO4 [Compound 27-S]	1.35	1.35		1.97	2.83	6.02	11.2		> 123	4.55	> 123	1.19
